Assay results as given in patent publication US11466044B2 (WAYNE STATE UNIVERSITY, priority 2017, dated 2022).
pIC50: −log10 of the molar value. ≈ marks a conversion by molar mass, not a printed value. Counter-ions that a name gives are not always drawn. Like-named read-outs stand apart in the source and are kept apart here.

Assays:
[1] = system: mitochondrial ribosome (human chimeric); format: biochemical; conditions: mitochondrial; Table 3 (Example 1); read-out: IC50 Mit
Text: (§1) The antiribosomal activity of these compounds was investigated with cell-free translation assays using both wild type bacterial ribosomes and hybrid ribosomes carrying eukaryotic decoding A sites enabling the prediction of selectivity.

[2] = system: cytosolic ribosome (human chimeric); format: biochemical; conditions: cytosolic; Table 3 (Example 1); read-out: IC50 Cyt
Text: as §1

[3] = system: Klebsiella pneumonia AG215; test: MIC by broth microdilution, Klebsiella pneumonia; format: cell-based; conditions: Klebsiella pneumoniae; strain AG215 Klebsiella pneumonia; read-out: MIC AG215 K. pneumon
[4] = system: Enterobacter cloacae AG290; test: MIC by broth microdilution, Enterobacter cloacae; format: cell-based; conditions: strain AG290 Enterobacter cloacae; read-out: MIC AG290 E. cloacae
[5] = system: Acinetobacter baumannii pittii AG225; test: MIC by broth microdilution, Acinetobacter baumannii; format: cell-based; conditions: strain AG225 Acinetobacter baumannii pittii
[6] = system: N. gonorrhoeae; test: Disk diffusion, N. gonorrhoeae; format: cell-based; conditions: Neisseria gonorrhoeae
[7] = system: MRSA; test: MIC by broth microdilution, MRSA isolates; format: cell-based; conditions: Staphylococcus aureus, MRSA
[8] = system: P aeruginosa; test: MIC by broth microdilution, P aeruginosa isolates; format: cell-based, Pseudomonas aeruginosa; conditions: for MIC50: Pseudomonas aeruginosa; for MIC: strain AG220 Pseudomonas aeruginosa ATCC27853, read-out: MIC AG220 P. aerugin
[9] = system: M. smegmatis SZ380; test: MIC by broth microdilution, M. smegmatis; conditions: Mycolicibacterium smegmatis, SZ380, read-out: MIC SZ380 M. smegmatis, strain SZ380 Mycobacterium smegmatis
[10] = system: wild type bacterial ribosomes; test: in-vitro translation assay, bacterial ribosomes; format: biochemical; conditions: bacterial ribosome; Table 3 (Example 1); read-out: IC50 Bac
Text: as §1

[11] = system: E coli carrying specific resistance determinants; test: MIC by broth microdilution, E coli carrying specific resistance determinants; format: cell-based; conditions: Escherichia coli
[12] = system: E coli wild type; test: MIC by broth microdilution, wild type E coli; format: cell-based; conditions: Escherichia coli; for MIC50: Table 1 (Example 1)
[13] = strain AG38, Table 1 (Example 1), read-out: MIC50 MRSA AG38
[14] = strain AG44, Table 1 (Example 1), read-out: MIC50 MRSA AG44
[15] = read-out: MIC AG037 E. coli APH(3′)-III
[16] = read-out: MIC AG163 E. coli APH(3′)-I
[17] = read-out: MIC AG166 E. coli APH(3′)-II
[18] = read-out: MIC E coli AG007 ANT(3″) AAC(3)-I
[19] = read-out: MIC E coli AG103 ArmA
[20] = read-out: MIC E coli AG163/164 APH(3′)-Ia
[21] = read-out: MIC E coli AG166 APH(3′)-IIa
[22] = read-out: MIC pH421 E. coli APH(3′)-I
[23] = read-out: MIC pH422 E. coli APH(3′)-II
[24] = read-out: MIC pH423 E. coli APH(3′)-VI
[25] = AG006 wt, Table 2 (Example 1), read-out: MIC E coli AG006 wt
[26] = AG102 wt, Table 2 (Example 1), read-out: MIC E coli AG102 wt
[27] = AG160 wt, Table 2 (Example 1), read-out: MIC E coli AG160 wt
[28] = ATCC25922, strain AG212 E. coli (ATCC25922), read-out: MIC AG212 E. coli
[29] = WT, Table 3 (Example 1), read-out: MIC WT
[30] = clinical isolate AG160 WT, Table 2 (Example 4), read-out: MIC AG160 E. coli WT
[31] = engineered strain pH430 WT, Table 2 (Example 4), read-out: MIC pH430 E. coli WT
[32] = strain AG01, read-out: MIC50 E coli AG01
[33] = strain AG03, read-out: MIC50 E coli AG03
[34] = strain AG55, read-out: MIC50 E coli AG55

NC[C@@H]1O[C@H](O[C@@H]2C(O)[C@H](O[C@@H]3C(O)[C@H](N)CC(N)[C@H]3O[C@H]3OC(CO)[C@@H](O)[C@H](O)C3N)O[C@@H]2CNC=O)C(N)C(O)[C@@H]1O (stereo partly drawn) [Compound 137, 5″-Deoxy-5″-formamido-paromomycin acetate salt] showed a pIC50 [1] of 3.84, a pIC50 [2] of 4.05 and an MIC [3] of 1 µg/mL. The MIC [4] was 1 to 2 µg/mL, the MIC [5] was 2 µg/mL and the zone of inhibition at 25 nmol/disc [6] was 11 mm. For the same compound, the MIC50 ([7]; read-out: MIC50 MRSA AG39) was greater than 128 µg/mL, the MIC50 ([7]; read-out: MIC50 MRSA AG42) was greater than 128 µg/mL and the MIC50 [7, 13] was 4 µg/mL. For the same compound, the MIC50 [7, 14] was 2 to 4 µg/mL, the MIC50 ([8]; read-out: MIC50 P aeruginosa AG31) was 128 µg/mL and the MIC50 ([8]; read-out: MIC50 P aeruginosa AG32) was 128 µg/mL. It also gave an MIC50 ([8]; read-out: MIC50 P aeruginosa AG33) greater than 128 µg/mL, an MIC50 ([8]; read-out: MIC50 P aeruginosa AG86) greater than 128 µg/mL and an MIC [8] greater than 64 µg/mL. For the same compound, the MIC [9] was 1 µg/mL, the pIC50 [10] was 7.40 and the MIC [11, 15] was 128 µg/mL. It also gave an MIC [11, 16] of 64 µg/mL, an MIC [11, 17] greater than 128 µg/mL and an MIC ([11]; read-out: MIC APH(3)-VI) greater than 64 µg/mL. The MIC ([11]; read-out: MIC APH(3′)-I) was greater than 64 µg/mL, the MIC ([11]; read-out: MIC APH(3′)-II) was greater than 64 µg/mL and the MIC ([11]; read-out: MIC APH(3′)-III) was greater than 64 µg/mL. The MIC [11, 18] was 4 µg/mL, the MIC [11, 19] was 8 µg/mL and the MIC [11, 20] was 32 to 64 µg/mL. For the same compound, the MIC [11, 21] was greater than 128 µg/mL, the MIC [11, 22] was greater than 64 µg/mL and the MIC [11, 23] was greater than 64 µg/mL. For the same compound, the MIC [11, 24] was greater than 64 µg/mL, the MIC [12, 25] was 1 µg/mL and the MIC [12, 26] was 1 µg/mL. For the same compound, the MIC [12, 27] was 2 µg/mL, the MIC [12, 28] was 2 µg/mL and the MIC [12, 29] was 1 to 2 µg/mL. It also gave an MIC [12, 30] of 2 µg/mL, an MIC [12, 31] of 1 to 2 µg/mL and an MIC50 [12, 32] of 4 µg/mL. The MIC50 [12, 33] was 4 µg/mL and the MIC50 [12, 34] was 4 µg/mL.

For NCC1OC(OC2C(CNC=O)OC(OC3C(O)C(N)CC(N)C3OC3OC(CO)C(O)CC3N)C2O)C(N)C(O)C1O (stereo not drawn) [Compound 153, 3′,5″-Dideoxy-5″-formamido-paromomycin], the pIC50 [1] was 3.84, the pIC50 [2] was 4.05 and the MIC [3] was 1 to 2 µg/mL (≈ 1.6 to 3.19 µM). It also gave an MIC [4] of 2 µg/mL (≈ 3.19 µM), an MIC [5] of 4 µg/mL (≈ 6.38 µM) and a zone of inhibition at 25 nmol/disc [6] of 13 mm. The MIC50 [7, 13] was 4 µg/mL (≈ 6.38 µM), the MIC50 ([7]; strain AG39, Table 1 (Example 1), read-out: MIC50 MRSA AG39) was greater than 128 µg/mL and the MIC50 ([7]; strain AG42, Table 1 (Example 1), read-out: MIC50 MRSA AG42) was greater than 128 µg/mL. For the same compound, the MIC50 [7, 14] was 4 µg/mL (≈ 6.38 µM), the MIC50 ([8]; strain AG31, Table 1 (Example 1), read-out: MIC50 P aeruginosa AG31) was 32 to 64 µg/mL (≈ 51.1 to 102 µM) and the MIC50 ([8]; strain AG32, Table 1 (Example 1), read-out: MIC50 P aeruginosa AG32) was 32 µg/mL (≈ 51.1 µM). For the same compound, the MIC50 ([8]; strain AG33, Table 1 (Example 1), read-out: MIC50 P aeruginosa AG33) was greater than 32 µg/mL, the MIC [8] was 8 µg/mL (≈ 12.8 µM) and the MIC [9] was 1 µg/mL (≈ 1.6 µM). It also gave a pIC50 [10] of 6.92, an MIC [11, 15] of 2 µg/mL (≈ 3.19 µM) and an MIC [11, 16] of 4 to 8 µg/mL (≈ 6.38 to 12.8 µM). For the same compound, the MIC [11, 17] was 8 to 16 µg/mL (≈ 12.8 to 25.5 µM), the MIC ([11]; read-out: MIC APH(3)-VI) was 2 to 4 µg/mL (≈ 3.19 to 6.38 µM) and the MIC ([11]; read-out: MIC APH(3′)-I) was 2 µg/mL (≈ 3.19 µM). The MIC ([11]; read-out: MIC APH(3′)-II) was 2 µg/mL (≈ 3.19 µM), the MIC ([11]; read-out: MIC APH(3′)-III) was 2 µg/mL (≈ 3.19 µM) and the MIC [11, 18] was 4 µg/mL (≈ 6.38 µM). For the same compound, the MIC [11, 19] was 32 µg/mL (≈ 51.1 µM), the MIC [11, 20] was 4 to 8 µg/mL (≈ 6.38 to 12.8 µM) and the MIC [11, 21] was 8 to 16 µg/mL (≈ 12.8 to 25.5 µM). For the same compound, the MIC [11, 22] was 2 µg/mL (≈ 3.19 µM), the MIC [11, 23] was 4 µg/mL (≈ 6.38 µM) and the MIC [11, 24] was 2 to 4 µg/mL (≈ 3.19 to 6.38 µM). For the same compound, the MIC [12, 25] was 2 µg/mL (≈ 3.19 µM), the MIC [12, 26] was 2 µg/mL (≈ 3.19 µM) and the MIC [12, 27] was 2 to 4 µg/mL (≈ 3.19 to 6.38 µM). It also gave an MIC [12, 28] of 4 µg/mL (≈ 6.38 µM), an MIC [12, 29] of 2 µg/mL (≈ 3.19 µM) and an MIC [12, 30] of 2 to 4 µg/mL (≈ 3.19 to 6.38 µM). It also gave an MIC [12, 31] of 2 µg/mL (≈ 3.19 µM), an MIC50 [12, 32] of 8 to 16 µg/mL (≈ 12.8 to 25.5 µM) and an MIC50 [12, 33] of 8 µg/mL (≈ 12.8 µM). It also gave an MIC50 [12, 34] of 8 to 16 µg/mL (≈ 12.8 to 25.5 µM).
